Assay results taken from patent US20110209699A1, “COMBINATION OF DEHYDROEPIANDROSTERONE OR DEHYDROEPIANDROSTERONE-SULFATE WITH A LIPOXYGENASE INHIBITOR FOR TREATMENT OF ASTHMA OR CHRONIC OBSTRUCTIVE PULMONARY DISEASE” (priority 2003, published 2011).

Legend:
Intracellular adenosine = test: In vivo effect on adenosine levels in various rat tissues; parameters: species or system Fischer 344 rats; details: for Intracellular adenosine (nmols)/mg protein, Brain: rat brain, control 0.5 ± 0.04
Protocol: Folinic acid (50 mg/kg) was administered intraperitoneally once daily for fourteen days. […] Hearts were removed from animals and flash frozen in liquid nitrogen with 10 s of death. Liver and lungs were removed en bloc and flash frozen with 30 s of death. Brain tissue was subsequently dissected.

[1] = HPLC analysis of drug degradation during jet milling micronization; type: physicochemical; details: single and double pass jet-milled powder vs unmilled standard, HPLC peak area
Protocol: Approximately 1 g sample was passed through the jet mill, once, and approximately 2 g sample were passed through the jet mill twice. […] The resulting solution was sonicated for 3 minutes and appeared fully dispersed. The dispersed solutions were tested on a Malvern Mastersizer X with a small volume sampler (SVS) attachment. One sample of dispersed material was tested 5 times. The median particle size or D (v, 0.5) of unmilled material was 52.56 μm and the % RSD (relative standard deviation) was 7.61 for the 5 values. The D (v, 0.5) for a single pass through the jet mill was 3.90 μm and the % RSD was 1.27, and the D (v, 0.5) from a double pass through the jet mill 3.25 μm and the % RSD was 3.10.
Two vials (A; single-pass; 150 mg) and (B double-pass; 600 mg) of the micronized drug were available for determining drug degradation during jet milling micronization. […] The chromatographic peak area for the HPLC assay of the unmilled drug standard solution (10 mg/ml) gave a value of 23,427. […] The chromatographic peak areas for vials A and B were 11,979 and 11,677, respectively.

HT-29 SF cells [2] = test: Reversal of DHEA-mediated growth inhibition; type: cell-based, human; details: 25 μM DHEA, 48 hour treatment; MVA 2 μM, SQ 80 μM, CH 15 μg/ml, RN 30 μM each, DN 20 μM each
HT-29 SF cells [3] = test: Reversal of DHEA effect on cell cycle; type: cell-based, human; details: 25 μM DHEA
HT-29 SF cells [4] = test: DHEA effect on cell growth (Coulter counter); details: 0, 12.5, 25, 50 or 200 μM; cell number at 0, 24, 48, 72 hours
Protocol: Cell cultures, HT-29 SF cells, which represent a subline of HY-29 cells (ATCC, Rockville, Md.) and are adapted for growth in completely defined serum-free PC-1 medium (Ventrex, Portland, Me.), were obtained. Stock cultures were maintained in this medium at 37° C. (in a humidified atmosphere containing 5% CO2).

[5] = Solubility of DHEA-S as a function of NaCl concentration and temperature; type: physicochemical; details: for equilibrium constant Ksp=[DHEA-S-][Na+]: slope of solubility vs reciprocal sodium concentration
Description: Inhalation of pure water can produce a cough stimulus. […] The temperature effect is weaker at high NaCl concentrations.

HT-29 SF cells [6] = test: DHEA effect on cell cycle (flow cytometry); type: cell-based, human; details: 25, 50 or 200 μM; 24, 48, 72 hours; propidium iodide DNA content
[7] = Physicochemical testing before and after micronization; details: for Particle size (D50%): laser diffraction; for Water (% w/w): Karl Fischer
Protocol: Surface area is determined using five point BET analyses are performed with nitrogen as the adsorbing gas (P/Po=0.05 to 0.30) using a Micromeritics TriStar surface area analyzer. Particle size distributions are measured by laser diffraction using a Micromeritics Saturn Digisizer where the particles are suspended in mineral oil with sodium dioctyl sodium sulfosuccinate as a dispersing agent. Drug substance water content is measured by Karl Fischer titration (Schott Titroline KF). Pure water is used as the standard and all relative standard deviations for triplicates are less than 1%. Powder is added directly to the titration media.

[8] = test system: rat peritoneal mast cells; test: Mast cell degranulation (histamine secretion) after compound 48/80; type: cell-based; details: at 0.1 uM; 0.1 μg/ml compound 48/80; 2 min at 37° C.
Description: Leukotrienes are synthesized—though not exclusively by the mast cell (Gilchrist, M., McCauley, S. D., & Befus, A. D. (2004) Expression, localization, and regulation of NOS in human mast cell lines: effects on leukotriene production. Blood 104, 462-469). We determined whether DHEA-sulfate would reduce mast cell degranulation after stimulation with compound 48/80 in rat peritoneal mast cells. Mast cell degranulation was quantified by measurement of histamine, another substance contained within the secretory granules of mast cells. The release of histamine is believed to parallel the release of leukotrienes.
Freshly isolated rat peritoneal mast cells (2×10^5 cells) were pre-incubated for 5 min at 37° C. in a Balanced Salt Solution containing 150 mM NaCl (pH 7.4), 2.7 mM KCl, 0.9 mM CaCl2, 4 mM Na2HPO4, 2.7 mM KH2PO4, 1.75 mg/ml BSA and 0.1 μg/ml compound 48/80.
Following incubation, the mixture is cooled to 4° C. then centrifuged at 4500 rpm for 5 min. The supernatant is collected and mixed for 30 min at 4° C. with 5% TCA (trichloroacetic acid) to cause protein precipitation. […]
The amount of secreted histamine is quantified by measuring the fluorescence intensity at λex=360 nm and λem=450 nm using a spectrofluorimeter (GeminiXS, Molecular Devices). The results are expressed as a percent inhibition of control histamine secretion.

[9] = Short-term solution stability of nebulizer formulation; type: physicochemical; details: 10 mg/mL in 0.12% NaCl, clear glass vials
Protocol: Aliquots of this solution are filled into clear glass vials and stored at RT (24-26° C.) and at 40° C. The samples are checked daily for DHEA-S content, DHEA content, and appearance. For each time point, duplicate samples are withdrawn and diluted from each vial. […] The study is stopped on day three. […] The solution should easily be stable for the day of reconstitution in a clinical trial. The following section describes the aerosol properties of this formulation.

[10] = calculated for 20 mM Na+ (0.12% NaCl), Ksp 1316 mM^2, 15° C.

Nc1nc(=O)c2c([nH]1)NCC(CNc1ccc(C(=O)N[C@@H](CCC(=O)O)C(=O)O)cc1)N2C=O (mixture of isomers) [Folinic Acid]
Intracellular adenosine (nmols)/mg protein, Brain (Intracellular adenosine; once daily 14 days, DHEA 300 mg/kg or methyltestosterone 40 mg/kg by gavage, folinic acid 50 mg/kg i.p., alone or combined, mean ± SEM): 0.72 ± 0.09 nmols/mg protein | Intracellular adenosine (nmols)/mg protein, Heart (Intracellular adenosine; rat heart, once daily 14 days, DHEA 300 mg/kg or methyltestosterone 40 mg/kg by gavage, folinic acid 50 mg/kg i.p., alone or combined, mean ± SEM, control 10.6 ± 0.6): 12.4 ± 2.1 nmols/mg protein | Intracellular adenosine (nmols)/mg protein, Liver (Intracellular adenosine; rat liver, once daily 14 days, DHEA 300 mg/kg or methyltestosterone 40 mg/kg by gavage, folinic acid 50 mg/kg i.p., alone or combined, mean ± SEM, control 14.5 ± 1.0): 16.4 ± 2.4 nmols/mg protein | adenosine levels when administered alone (Intracellular adenosine; rat, in vivo): increase in adenosine levels for all organs studied | effect of coadministration on steroid-mediated adenosine depletion (Intracellular adenosine; rats, folinic acid 50 mg/kg i.p. with DHEA or methyltestosterone, 14 days): completely abrogated steroid-mediated adenosine depletion

C[C@]12CC[C@H](OS(=O)(=O)[O-])CC1=CC[C@@H]1[C@@H]2CC[C@]2(C)C(=O)CC[C@@H]12.[Na+] [Anhydrous DHEA-S]
drug degradation during jet milling micronization [1]: no detectable degradation

CC(C)CCC[C@@H](C)[C@H]1CC[C@H]2[C@@H]3CC=C4C[C@@H](O)CC[C@]4(C)[C@H]3CC[C@]12C [CH, cholesterol]
reversal of DHEA-induced growth inhibition by medium supplement (HT-29 SF cells [2]): no such effect | prevention of DHEA-induced S phase depletion by medium supplement (HT-29 SF cells [3]; 48 hours): very little effect | prevention of DHEA-induced S phase depletion by medium supplement (HT-29 SF cells [3]; 72 hours): no effect

C[C@]12CC[C@H](O)CC1=CC[C@@H]1[C@@H]2CC[C@]2(C)C(=O)CC[C@@H]12 [DHEA, 3β-hydroxyandrost-5-en-17-one]
inhibition of growth (HT-29 SF cells [4]): time- and dose-dependent inhibition of growth | solubility in water ([5]; water): insoluble | effect on cell cycle distribution (HT-29 SF cells [6]): G1 block in HT-29 SF cells in a time- and dose-dependent manner | Intracellular adenosine (nmols)/mg protein, Heart (Intracellular adenosine; rat, in vivo): 6.7 ± 0.5

CC12CCC3C(CC=C4CC(OS(=O)(=O)[O-])CCC43C)C1CCC2=O.[Na+] (stereo not drawn) [DHEA-S dihydrate]
Particle size (D50%) ([7]; Bulk, before micronization): 31 microns | Water (% w/w) ([7]; Bulk): 8.5 % w/w | Particle size (D50%) ([7]; Micronized (jet mill)): 3.7 microns | Water (% w/w) ([7]; Micronized): 8.4 % w/w | Surface area (m^2/g) ([7]; Micronized, five point BET): 4.9 m^2/g

C[C@]12CC[C@H](OS(=O)(=O)[O-])CC1=CC[C@@H]1[C@@H]2CC[C@]2(C)C(=O)CC[C@@H]12.[Na+] [DHEA-S, sodium dehydroepiandrostenone sulfate]
equilibrium constant Ksp=[DHEA-S-][Na+] ([5]; RT (24-25° C.)): 2236 mM^2 | estimated DHEA-S solution concentration [5, 10]: 10.7 mg/mL | estimated DHEA-S- solution concentration [5, 10]: 27.5 mM | equilibrium constant Ksp=[DHEA-S-][Na+] ([5]; refrigerated (7-8° C.)): 665 mM^2 | maximal effect, percent inhibition of control histamine secretion [8]: 69.9% | solution appearance on storage ([9]; 40° C.): became cloudy after two days of storage | solution appearance on storage ([9]; RT (24-26° C.)): slight precipitate is observed on the third day

C[C@@](O)(CCO)CC(=O)O [MVA, mevalonic acid]
reversal of DHEA-induced growth inhibition by medium supplement (HT-29 SF cells [2]): partially overcome | prevention of DHEA-induced S phase depletion by medium supplement (HT-29 SF cells [3]; 48 hours): partially prevented this effect | prevention of DHEA-induced S phase depletion by medium supplement (HT-29 SF cells [3]; 72 hours): not after 72 hours

C[C@]12CCC(=O)C=C1CC[C@@H]1[C@@H]2CC[C@@]2(C)[C@H]1CC[C@]2(C)O [Methyltestosterone]
Intracellular adenosine (nmols)/mg protein, Brain (Intracellular adenosine; methyltestosterone 120 mg/kg, alone or + folinic acid 50 mg/kg, mean ± SEM): 0.32 ± 0.03 nmols/mg protein | Intracellular adenosine (nmols)/mg protein, Heart (Intracellular adenosine; rat heart, methyltestosterone 120 mg/kg, alone or + folinic acid 50 mg/kg, mean ± SEM, control 10.6 ± 0.6): 6.0 ± 0.4 nmols/mg protein | Intracellular adenosine (nmols)/mg protein, Liver (Intracellular adenosine; rat liver, methyltestosterone 120 mg/kg, mean ± SEM, control 14.5 ± 1.0): 5.1 ± 0.5 nmols/mg protein | Intracellular adenosine (nmols)/mg protein, Liver (Intracellular adenosine; rat, in vivo): 16.5 ± 0.9 nmols/mg protein

CC(C)=CCC/C(C)=C/CC/C(C)=C/CC/C=C(\C)CC/C=C(\C)CCC=C(C)C [SQ, squalene]
reversal of DHEA-induced growth inhibition by medium supplement (HT-29 SF cells [2]): no such effect
